Reference: paper PMC10855164, “Ligand-Based Design of Selective Peptidomimetic uPA and TMPRSS2 Inhibitors with Arg Bioisosteres” (International Journal of Molecular Sciences, 2024)
Several values for one entry are separate records, joined by “and”; a condition that tells them apart may be missing. Equal values may be shown once.

Assays:
Format in all cases: biochemical
tPA = biological target: T1, tPA (Homo sapiens, UniProt P00750); experiment: colorimetric enzyme inhibition assay, tPA (N-methylsulfonyl-D-Phe-Gly-Arg-pNA); details: from IC50 by Cheng-Prusoff; n.a. = not active, <80% inhibition at 20 µM
T1 construct: purchased Sigma Aldrich
Experimental: (§1) The inhibitory activity of the synthesized compounds towards the respective main- and off-target proteases was measured via fluorometric and colorimetric assays. Thus, fluorogenic AMC- or colorimetric pNA-based substrates with a peptide sequence suitable for the tested protease were utilized (see Supplementary Figure S2). At first, the compounds were screened against […] proteases (uPA, TMPRSS2, matriptase, tPA, thrombin, factor Xa) at 20 µM, and a cut-off value of 80% inhibition at this concentration was set, for the differentiation between nonactive (n.a.) and active inhibitors. Due to the reversible inhibition mechanism of the ketobenzothiazole derivates, the IC50 values were determined with Graphpad Prism 9, and afterwards converted to the corresponding Ki values for an adequate comparison between the inhibitory activities of the compounds toward all tested proteases. The Ki values were calculated using the Cheng–Prusoff equation [43].
(§2) Fluorometric inhibition assays
(§3) The inhibitory activities of the compounds against the proteases were determined by enzyme inhibition assays with fluorogenic or colorimetry-based substrates. The fluorescence, caused by cleaved AMC from the fluorogenic substrates (uPA, matriptase, TMPRSS2, thrombin), was measured in white flat-bottom 96-well plates from Greiner Bio-One using a Tecan Infinite F200 Pro plate reader. The absorption, caused by cleaved pNA from colorimetric substrates (factor Xa and tPA), was measured in transparent flat-bottom 96-well plates from Greiner Bio-One using a Tecan Spark 10M plate reader. All measurements with the main-target proteases (uPA and TMRPSS2) were performed as triplicates and with the off-target proteases (matriptase, factor Xa, tPA, thrombin) as duplicates. The substrates and the compounds were prepared as stock solutions in DMSO. Each well contained a total volume of 200 µL, consisting of 185 µL buffer, 5 µL inhibitor in DMSO or pure DMSO as negative control, 5 µL substrate in DMSO and 5 µL enzyme solution in buffer. Dilution series were prepared for the determination of the inhibition constants. The fluorescence signal and absorbance were measured every 30 s for 10 min at 25 or 37 °C with the corresponding excitation/emission (λex = 380 nm / λem = 460 nm) and absorbance (λabs = 405 nm) wavelengths, depending on the targeted protease. IC50 values for the reversible inhibitors were calculated with Graphpad Prism 9 by fitting the remaining enzymatic activity to the four parameter IC50 equation with Y [%] as the residual enzyme activity , Ymax as the maximum value of the dose response curve at inhibitor concentrations [I] = 0 µM, Ymin as the minimum value at high inhibitor concentrations and s as the hill coefficient.[1] The fluorescence progress curves and sigmoidal dose-response curve for inhibition of uPa by compound 38 is shown exemplary in Figure S2. […]
(§4) Due to the dependence of the IC50 value on the substrate affinity and concentration, the Ki values were calculated with the Cheng-Prusoff equation, using the final substrate concentration [S] and the Michaelis-Menten constant KM, (2) for appropriate comparison of the inhibitory activities to the other enzymes and inhibitors.[1]
(§5) KM values were determined by fitting to the Michaelis-Menten equation using Graphpad Prism 9 with v [ΔF/min] as the substrate hydrolysis rate, vmax as the maximum slope of the dose-response curve, and the substrate [S] concentration.[1] The different substrates were serially diluted in DMSO. […]

thrombin = biological target: T2, thrombin (Homo sapiens, UniProt P00734); experiment: fluorometric enzyme inhibition assay, thrombin (Z-Gly-Gly-Arg-AMC); details: for Ki / Ki Thrombin: from IC50 by Cheng-Prusoff, n.a. = not active, <80% inhibition at 20 µM; for Selectivity index [SI] Thrombin: quotient Ki thrombin / Ki uPA
T2 construct: purchased Bio-techne
Experimental: as §1, §2, §3, §4
as §5, with “DMSO. The measurement was done in analogy to the determination of the inhibitory activity, but with 5 µL pure DMSO instead of inhibitor solution.” for “DMSO.”
(§6) The following buffers and substrates were used for the respective assays: uPA (50 mM Tris HCl pH = 7.9, 150 mM […]
(§7) TMPRSS2 (25 mM Tris HCl pH = 8.0, 150 mM NaCl, 5 mM CaCl2, 0.001% TX-100, 100 µM Boc-Gln-Ala-Arg-AMC (KM: 68.63 ± 6.64 µM), 25 °C, 3 nM TMPRSS2)[3]; matriptase (50 mM Tris HCl pH = 8.0, 150 mM NaCl, 5 mM CaCl2, […]

matriptase = biological target: T3, matriptase (Homo sapiens, UniProt Q9Y5Y6); experiment: fluorometric enzyme inhibition assay, matriptase (Boc-Leu-Arg-Arg-AMC); details: for Ki / Ki Matriptase: from IC50 by Cheng-Prusoff, n.a. = not active, <80% inhibition at 20 µM
T3 construct: catalytic domain of matriptase (uniport: Q9Y5Y6 aa 596–855); hexa-histidine (N); made in house; host or cells: Escherichia coli BL21 Gold (DE3)
T3 sequence (Q9Y5Y6 596-855): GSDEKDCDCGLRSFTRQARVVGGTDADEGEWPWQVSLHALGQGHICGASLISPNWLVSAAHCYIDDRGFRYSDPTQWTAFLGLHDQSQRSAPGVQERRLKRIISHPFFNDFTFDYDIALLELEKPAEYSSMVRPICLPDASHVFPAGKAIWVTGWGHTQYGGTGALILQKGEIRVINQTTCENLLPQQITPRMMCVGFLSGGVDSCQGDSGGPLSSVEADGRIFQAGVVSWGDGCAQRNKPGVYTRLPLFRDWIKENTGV
Experimental: as §1, §2, §3, §4
as §5, with “DMSO. The measurement was done in analogy to the determination of the inhibitory activity, but with 5 µL pure DMSO instead of inhibitor solution.” for “DMSO.”
as §6, §7

TMPRSS2 = biological target: T4, TMPRSS2 (Homo sapiens, UniProt O15393); experiment: fluorometric enzyme inhibition assay, TMPRSS2 (Boc-Gln-Ala-Arg-AMC); details: for Ki / Ki TMPRSS2: from IC50 by Cheng-Prusoff, n.a. = not active, <80% inhibition at 20 µM; for Selectivity index [SI] TMPRSS2: quotient Ki TMPRSS2 / Ki uPA
T4 construct: purchased Cusabio
Experimental: as §1, §2, §3, §4
as §5, with “DMSO. The measurement was done in analogy to the determination of the inhibitory activity, but with 5 µL pure DMSO instead of inhibitor solution.” for “DMSO.”
as §6, §7

factor Xa = biological target: T5, factor Xa (Homo sapiens, UniProt P00742); experiment: colorimetric enzyme inhibition assay, factor Xa (Z-D-Arg-Gly-Arg-pNA); details: for Ki / Ki Factor Xa: from IC50 by Cheng-Prusoff, n.a. = not active, <80% inhibition at 20 µM; for Selectivity index [SI] Factor Xa: quotient Ki factor Xa / Ki uPA
T5 construct: purchased Bio-techne
Experimental: as §1, §2, §3, §4
as §5, with “DMSO. The measurement was done in analogy to the determination of the inhibitory activity, but with 5 µL pure DMSO instead of inhibitor solution.” for “DMSO.”
as §6, §7

uPA = biological target: T6, uPA (Homo sapiens, UniProt P00749); experiment: fluorometric enzyme inhibition assay, uPA (Z-Gly-Gly-Arg-AMC); details: for Ki / Ki uPA: from IC50 by Cheng-Prusoff, n.a. = not active, <80% inhibition at 20 µM; for Selectivity index [SI] uPA: quotient Ki uPA / Ki TMPRSS2
T6 construct: purchased Sigma Aldrich
Experimental: as §1, §2
The inhibitory activities of the compounds against the proteases were determined by enzyme inhibition assays with fluorogenic or colorimetry-based substrates. The fluorescence, caused by cleaved AMC from the fluorogenic substrates (uPA, matriptase, TMPRSS2, thrombin), was measured in white flat-bottom 96-well plates from Greiner Bio-One using a Tecan Infinite F200 Pro plate reader. The absorption, caused by cleaved pNA from colorimetric substrates (factor Xa and tPA), was measured in transparent flat-bottom 96-well plates from Greiner Bio-One using a Tecan Spark 10M plate reader. All measurements with the main-target proteases (uPA and TMRPSS2) were performed as triplicates and with the off-target proteases (matriptase, factor Xa, tPA, thrombin) as duplicates. The substrates and the compounds were prepared as stock solutions in DMSO. Each well contained a total volume of 200 µL, consisting of 185 µL buffer, 5 µL inhibitor in DMSO or pure DMSO as negative control, 5 µL substrate in DMSO and 5 µL enzyme solution in buffer. Dilution series were prepared for the determination of the inhibition constants. The fluorescence signal and absorbance were measured every 30 s for 10 min at 25 or 37 °C with the corresponding excitation/emission (λex = 380 nm / λem = 460 nm) and absorbance (λabs = 405 nm) wavelengths, depending on the targeted protease. IC50 values for the reversible inhibitors were calculated with Graphpad Prism 9 by fitting the remaining enzymatic activity to the four parameter IC50 equation with Y [%] as the residual enzyme activity , Ymax as the maximum value of the dose response curve at inhibitor concentrations [I] = 0 µM, Ymin as the minimum value at high inhibitor concentrations and s as the hill coefficient.[1] The fluorescence progress curves and sigmoidal dose-response curve for inhibition of uPa by compound 38 is shown exemplary in Figure S2.
Figure S2: (left) Fluorescence progress curves for inhibition of uPa by cpd. 38. (right) Plot showing the respective IC50 value […]
as §4
as §5, with “DMSO. The measurement was done in analogy to the determination of the inhibitory activity, but with 5 µL pure DMSO instead of inhibitor solution. The fluorescence progress curves and Michaelis-Menten curve of the specific substrate of uPA is shown exemplarily” for “DMSO.”
Figure S3: (left) Fluorescence progress curves of cleavage of Z-Gly-Gly-Arg-AMC by uPA. (right) Michaelis-Menten curve […]

[1] = quotient Ki matriptase / Ki uPA
[2] = quotient Ki matriptase / Ki TMPRSS2

T1 sequence (P00750 36-562): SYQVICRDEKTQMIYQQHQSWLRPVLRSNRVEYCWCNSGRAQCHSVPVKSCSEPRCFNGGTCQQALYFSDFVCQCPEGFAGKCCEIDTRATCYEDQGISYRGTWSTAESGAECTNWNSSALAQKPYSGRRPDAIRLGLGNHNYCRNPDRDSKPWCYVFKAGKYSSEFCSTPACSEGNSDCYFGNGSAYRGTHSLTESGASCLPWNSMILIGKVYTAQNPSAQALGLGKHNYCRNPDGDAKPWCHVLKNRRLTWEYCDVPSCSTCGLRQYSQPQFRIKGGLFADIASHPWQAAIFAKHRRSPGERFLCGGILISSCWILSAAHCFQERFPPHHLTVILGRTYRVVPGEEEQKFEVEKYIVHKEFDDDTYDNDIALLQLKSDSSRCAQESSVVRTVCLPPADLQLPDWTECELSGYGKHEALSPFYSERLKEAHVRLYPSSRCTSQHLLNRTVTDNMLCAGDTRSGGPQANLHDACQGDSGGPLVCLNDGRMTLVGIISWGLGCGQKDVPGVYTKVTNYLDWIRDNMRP
T4 sequence (O15393 whole entry): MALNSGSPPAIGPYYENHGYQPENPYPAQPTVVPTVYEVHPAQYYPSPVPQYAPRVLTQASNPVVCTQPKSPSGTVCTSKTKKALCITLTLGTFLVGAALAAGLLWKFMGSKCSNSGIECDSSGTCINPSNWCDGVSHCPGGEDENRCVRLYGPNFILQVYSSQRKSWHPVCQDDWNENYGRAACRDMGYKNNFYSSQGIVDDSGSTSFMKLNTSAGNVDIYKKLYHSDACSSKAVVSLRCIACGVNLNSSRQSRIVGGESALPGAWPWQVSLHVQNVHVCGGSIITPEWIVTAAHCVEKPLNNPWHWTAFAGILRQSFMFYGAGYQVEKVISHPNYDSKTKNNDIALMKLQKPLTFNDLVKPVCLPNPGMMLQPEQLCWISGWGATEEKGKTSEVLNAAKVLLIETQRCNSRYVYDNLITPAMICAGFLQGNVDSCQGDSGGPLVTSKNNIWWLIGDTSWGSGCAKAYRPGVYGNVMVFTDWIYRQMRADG
T5 sequence (P00742 235-488 limits assumed): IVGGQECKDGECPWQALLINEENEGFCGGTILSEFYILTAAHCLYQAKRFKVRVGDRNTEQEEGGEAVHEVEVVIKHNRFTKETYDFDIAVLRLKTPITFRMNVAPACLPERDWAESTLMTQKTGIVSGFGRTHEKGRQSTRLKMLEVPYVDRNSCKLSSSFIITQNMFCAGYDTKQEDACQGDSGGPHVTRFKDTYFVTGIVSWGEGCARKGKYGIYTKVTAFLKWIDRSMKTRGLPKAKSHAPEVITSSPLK
T5 sequence (P00742 41-179 partner limits assumed): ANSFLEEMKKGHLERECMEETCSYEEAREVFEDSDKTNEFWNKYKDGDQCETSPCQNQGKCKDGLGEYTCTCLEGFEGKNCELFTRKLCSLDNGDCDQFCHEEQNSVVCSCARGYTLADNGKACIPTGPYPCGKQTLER

Structure (SMILES)	Ki tPA (tPA)	Ki (matriptase)	Selectivity index [SI] Matriptase (matriptase; [1])	Ki (TMPRSS2) [nM]	Selectivity index [SI] TMPRSS2 (TMPRSS2)	Ki (uPA) [nM]	Selectivity index [SI] Matriptase (matriptase; [2])	Selectivity index [SI] uPA (uPA)	also measured
CC(=O)NCC(=O)NC(C(=O)NC(C)C(=O)NC(CCCCNC(=N)N)C(=O)c1nc2ccccc2s1)C(C)O (stereo not shown) [Compound 20]	did not show inhibition	–	–	–	–	–	–	–	Ki Thrombin (thrombin): did not show inhibition; Ki Matriptase (matriptase): did not show inhibition; Ki TMPRSS2 (TMPRSS2): did not show inhibition; Ki Factor Xa (factor Xa): did not show inhibition; Ki uPA (uPA): did not show inhibition
CC(=O)N[C@@H](CC(N)=O)C(=O)N1CCC[C@H]1C(=O)N[C@@H](Cc1ccc(NC(=N)N)cc1)C(=O)c1nc2ccccc2s1 [Compound 30]	–	60 ± 8 nM	–	5 ± 1	–	479 ± 17	12	96	–
CC(=O)N[C@@H](CC(N)=O)C(=O)N[C@@H](Cc1ccccc1)C(=O)N[C@@H](Cc1ccc(NC(=N)N)cc1)C(=O)c1nc2ccccc2s1 [Compound 31]	–	252 ± 67 nM	–	0.4 ± 0.1	–	3570 ± 421	630	> 5000	–
CC(=O)N[C@@H](CC(N)=O)C(=O)N[C@@H](CC1CCCCC1)C(=O)N[C@@H](Cc1ccc(NC(=N)N)cc1)C(=O)c1nc2ccccc2s1 [Compound 32]	–	3330 ± 1140 nM	–	34 ± 4	–	2690 ± 217	98	79	–
CC(=O)N[C@@H](CC(N)=O)C(=O)N1CCC[C@H]1C(=O)N[C@@H](CC1CCC(NC(=N)N)CC1)C(=O)c1nc2ccccc2s1 (stereo partly shown) [Compound 39]	–	1200 ± 181 nM	–	44 ± 7	–	936 ± 100	27	21	–
CC(=O)NCC(=O)N[C@H](C(=O)N[C@@H](C)C(=O)N[C@@H](Cc1cccc(NC(=N)N)c1)C(=O)c1nc2ccccc2s1)[C@H](C)O [Compound 45]	did not show inhibition	–	–	–	–	–	–	–	Ki Thrombin (thrombin): did not show inhibition; Ki Matriptase (matriptase): did not show inhibition; Ki TMPRSS2 (TMPRSS2): did not show inhibition; Ki Factor Xa (factor Xa): did not show inhibition; Ki uPA (uPA): did not show inhibition

More lines, in order of falling Ki (uPA), values ahead:

Ki tPA (tPA)	Ki (matriptase)	Selectivity index [SI] Matriptase (matriptase; [1])	Ki (TMPRSS2) [nM]	Selectivity index [SI] TMPRSS2 (TMPRSS2)	Ki (uPA) [nM]	Selectivity index [SI] Matriptase (matriptase; [2])	Selectivity index [SI] uPA (uPA)	Structure (SMILES)	also measured
–	–	–	–	–	435 ± 33	–	–	CC(=O)NCC(=O)NC(C(=O)NC(C)C(=O)NC(CCCNC(=N)N)C(=O)c1nc2c(s1)CCCC2)C(C)O (stereo not shown) [Compound 15]	–
–	–	–	–	–	388 ± 95	–	–	CC(=O)NCC(=O)NC(C(=O)NC(C)C(=O)NC(CCCNC(=N)N)C(=O)c1nc2ccc(F)cc2s1)C(C)O (stereo not shown) [Compound 14b]	–
–	–	–	–	–	178 ± 19	–	–	COc1ccc2nc(C(=O)C(CCCNC(=N)N)NC(=O)C(C)NC(=O)C(NC(=O)CNC(C)=O)C(C)O)sc2c1 (stereo not shown) [Compound 14e]	–
did not show inhibition	32 ± 14 nM	0.2	5 ± 1	0.04	141 ± 28	–	–	CC(=O)NCC(=O)NC(C(=O)NC(C)C(=O)NC(CCCNC(=N)N)C(=O)c1nc2ccccc2s1)C(C)O [Compound 14a, Ac-Gly-L-Thr-L-Ala-L-Arg-kbt]	Ki (thrombin): 4390 ± 1480 nM; Selectivity index [SI] Thrombin (thrombin): 31; Ki (factor Xa): 3360 ± 320 nM
–	59 ± 9 nM	0.7	9 ± 1	0.1	82 ± 6	–	–	CC(=O)NCC(=O)NC(C(=O)NC(C)C(=O)NC(CCCNC(=N)N)C(=O)c1nc2ccc(Cl)cc2s1)C(C)O (stereo not shown) [Compound 14c]	Ki (thrombin): 456 ± 72 nM; Selectivity index [SI] Thrombin (thrombin): 5; Ki (factor Xa): 2450 ± 99 nM; Selectivity index [SI] Factor Xa (factor Xa): 30
–	38 ± 2 nM	0.6	6 ± 1	0.1	60 ± 15	–	–	CC(=O)NCC(=O)NC(C(=O)NC(C)C(=O)NC(CCCNC(=N)N)C(=O)c1nc2ccc(Br)cc2s1)C(C)O (stereo not shown) [Compound 14d]	Ki (thrombin): 450 ± 69 nM; Selectivity index [SI] Thrombin (thrombin): 8; Ki (factor Xa): 2850 ± 844 nM; Selectivity index [SI] Factor Xa (factor Xa): 47
did not inhibit	132 nM and 133 nM	4	10 ± 4	0.3	29 ± 2	–	–	CC(=O)NCC(=O)NC(C(=O)NC(C)C(=O)NC(Cc1ccc(NC(=N)N)cc1)C(=O)c1nc2ccccc2s1)C(C)O (stereo not shown) [Compound 29]	Ki Thrombin (thrombin): did not inhibit; Ki Factor Xa (factor Xa): did not inhibit
